Data: patent US20230064978A1, “CYCLIC PEPTIDE RECEPTOR LANTHIONINE SYNTHETASE C-LIKE PROTEIN (LANCL) AND USES THEREOF” (LATERAL IP PTY LTD, priority 2019, published 2023)

System: A549 cells
Experiment: Confocal imaging of LAT9991F-PAL binding and LANCL1 co-localization, with siRNA knockdown and competitors, in A549 cells
Format: cell-based
Conditions: SiLANCL1 A549 cells; competitor 25 μM
Description: A photoactivatable analog of LAT8881 (LAT9991F (SEQ ID NO:13)-PAL), was used to conduct the experiments. A549 or NCI-H358 cells were treated with LAT9991F-PAL at 2.5 μM during 30 minutes. Fluorescent signal was recorded after that LAT9991F-PAL was immobilized on its target(s) site by UV-crosslinking and the LAT9991F-PAL-target complexes were labeled with the green-fluorescent Alexa Fluor 488 alkyne dye by click-chemistry. Control cells were treated with the vehicle, dimethyl sulfoxide (DMSO), and with LAT9991F-PAL in combination with a large excess of the parent drug LAT8881 or other competitors, GSH, NSC61610 or ABA to evaluate, respectively, the non-specific fluorescent background and the specificity of the staining. For colocalization experiments, subsequently, immunofluorescence staining with an anti-LANCL1 or LANCL2 antibodies and an Alexa 568 (red) conjugated secondary antibody was performed. Images stacks of cells labeled with probes were collected and evaluated for the degree of colocalization of LAT9991F-PAL-target complexes and LANCL1 or LANCL2 using either the Measure Colocalization plugin in Metamorph or the JACoP plugin in ImageJ).
A549 or NCI-H358 cells (ATCC CCL-185 and ATCC CRL-5807, respectively) were cultured in appropriate medium containing 10% heat-inactivated FBS (Dutscher, #SV30160-036), 1% penicillin/streptomycin (Gibco, #15140-122) and maintained in a humidified 37° C. incubator with 5% CO2.
LAT9991F-PAL was dissolved in DMSO to make a 10 mM stock solution. Intermediate solutions at 25 μM and 2.5 μM were made in the culture medium from the 10 mM stock solutions of LAT8881 and LAT9991F-PAL, respectively. A two-fold dilution into PBS of each intermediate solution was used for cell treatment. A stock solution at 10 mM was prepared for the other competitors as GSH, NSC61610 and ABA. A final concentration at 25 μM was used for the assay.
A549 or NCI-H358 cells were seeded onto ibidiTreat Polymer Coverslips (Ibidi, #80826) at 2.5×10^5 cells/cm^2 in 200 μl of complete medium. After 24 hours, the medium was removed and cells were washed with PBS (Gibco, #10010049) and then pre-treated with the Taxol at 1 μM for 3 hours or with H2O2 25 μM for 2 hours. Cells were washed twice with PBS. Induced stress cells or control cells were then exposed to LAT9991F-PAL (2.5 μM) in PBS for 30 minutes, in the presence or absence of LAT8881 (25 μM), or the other compounds used as a competitor, and pre-incubated 10 minutes. After treatment, cells were washed with cold PBS and UV-irradiated (365 nm) in PBS for 20 min. After fixation with 4% paraformaldehyde and permeabilization (0.5% Triton/PBS) (Image-iT™ Fixation/Permeabilization Kit, ThermoFisher, #R37602), the bioorthogonal reaction with Alexa Fluor 488 Alkyne (1 μM) (ThermoFisher, #A10267) was performed at 25° C. using the Click-iT™ Cell Reaction Buffer Kit (ThermoFisher, #C10269) according to the manufacturer protocol. After click reaction, cells were washed twice with PBS, blocked with 3% BSA in PBS for 1 hour and stained with Hoechst 33342 dye (ThermoFisher, #H1399).
For colocalization experiments, cells were further incubated overnight at 4° C. with a mouse anti-LanCL1 antibody (Invitrogen, PAS-57-107) (dilution 1:1000) or LanCL2 (Atlas Antibodies HPA019711) (dilution 1:1000) in 3% BSA in PBS, washed twice with PBS, and then incubated respectively with a goat anti-mouse […] (Molecular Probes, #A21467) (dilution 1:800) for 1 h in 3% BSA in PBS. After three further washing steps with PBS, cells were embedded in Ibidi Mounting Medium (ibidi, #50001). The specimens were kept at 4° C. in the dark until analysis.
Images were acquired on an Axiovert200M (Zeiss) microscope using a CSU-W1 Yokogawa confocal unit. This microscope is equipped with a plan Apochromat X40 dry objective numerical aperture (NA) 0.95 and a Neofluar X100 oil immersion objective NA 1.45. Images were capture with an EMCCD camera (Prior, ProEM 1024×1024).

## YLRIVQCRSVEGSCGF [LAT8881, a cyclic peptide fragment of human growth hormone]
  Competition of LAT9991F-PAL binding by excess competitor: partially competed off
